The values below are quoted from earlier work in patent US6048869A, “Tricyclic compounds” (Merck & Co., Inc., priority 1999, dated 2000).

Molecules are shown by their SMILES.

Data set [1] concerns 5α-reductase 2.
In data set [2] the test system is 5α-reductase 1. The conditions noted are these: isozyme predominating in sebaceous glands of facial and skin tissue; Harris et al. 1992.

On to `CC(C)(C)NC(=O)[C@H]1CC[C@H]2[C@@H]3CC[C@H]4NC(=O)C=C[C@]4(C)[C@H]3CC[C@]12C` [Finasteride, 17,-(N-tert-butylcarbamoyl)-3-oxo-4-aza-5 α-androst-1-ene-3-one], for which, in data set [1] (human prostate enzyme), the “inhibition of the human prostate enzyme” value was “potent inhibitor”. Also, the “inhibition of type 2 5α-reductase” value in data set [1] (isozyme predominating in the prostate) is “potently inhibited”. In addition, in data set [2], the “sensitivity of type 1 5α-reductase to finasteride” value is on record as “relatively insensitive”.
